Measured values: patent publication US12655116B2, “Substituted isophthalic acid diamides” (Bayer Aktiengesellschaft, priority 2020, dated 2026)

Columns and labels:
AMARE [1] = assay: Pre-emergence herbicidal action against AMARE; type: in vivo, Amaranthus retroflexus
Method in brief: (§1)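 Pre-emergence soil-surface spray of formulated compound (WP or EC; 600 to 800 l/ha; 0.2% wetting agent) over seeds sown in sandy loam. After 3 weeks under greenhouse conditions, damage is estimated visually in percent against untreated plants.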

MATIN [2] = assay: Pre-emergence herbicidal action against MATIN; type: in vivo, Matricaria inodora
Method in brief: as §1

VIOTR [3] = assay: Pre-emergence herbicidal action against VIOTR; type: in vivo, Viola tricolor
Method in brief: as §1

ALOMY = assay: Pre-emergence herbicidal action against ALOMY; type: in vivo, Alopecurus myosuroides; conditions: 80 g/ha, pre-emergence, scored visually after 3 weeks vs untreated controls (100% = plants have died, 0% = like control plants)
Method in brief: as §1

ABUTH [4] = assay: Pre-emergence herbicidal action against ABUTH; type: in vivo, Abutilon theophrasti; conditions: for Pre-emergence action against ABUTH (herbicidal activity): 80 g/ha, scored visually after 3 weeks vs untreated controls (100% = plants have died, 0% = like control plants)
Method in brief: as §1

POLCO [5] = assay: Post-emergence herbicidal action against POLCO; type: in vivo, Polygonum convolvulus; conditions: dosage 20 g/ha
Procedure: Seeds of monocotyledonous and dicotyledonous weed and crop plants are laid out in sandy loam soil in wood-fiber pots, covered with soil and cultivated in a greenhouse under good growth conditions. 2 to 3 weeks after sowing, the test plants are treated at the one-leaf stage. The compounds of the invention, formulated in the form of wettable powders (WP) or as emulsion concentrates (EC), are then sprayed onto the green parts of the plants in the form of an aqueous suspension or emulsion at a water application rate equivalent to 600 to 800 l/ha, with addition of 0.2% wetting agent. After the test plants have been left to stand in the greenhouse under optimal growth conditions for about 3 weeks, the action of the preparations is assessed visually in comparison to untreated controls (herbicidal action in percent (%): 100% activity=the plants have died, 0% activity=like control plants). […] The tables below illustrate, in an illustrative manner, the post-emergence herbicidal action of the compounds of the invention, the herbicidal activity being stated in percent.

PHBPU [6] = assay: Pre-emergence herbicidal action against PHBPU; type: in vivo, Pharbitis purpurea; conditions: dosage 80 g/ha
Method in brief: as §1

AVEFA = assay: Pre-emergence herbicidal action against AVEFA; type: in vivo, Avena fatua; conditions: 80 g/ha, pre-emergence
Method in brief: as §1

ECHCG [7] = assay: Pre-emergence herbicidal action against ECHCG; type: in vivo, Echinochloa crus-galli
Method in brief: as §1

POLCO [8] = assay: Pre-emergence herbicidal action against POLCO; type: in vivo, Polygonum convolvulus
Method in brief: as §1

ECHCG [9] = assay: Post-emergence herbicidal action against ECHCG; type: in vivo, Echinochloa crus-galli
Method in brief: (§2)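 Spray, one-leaf stage: WP or EC compound in water, 600–800 l/ha, 0.2% wetting agent. Plants held about 3 weeks in the greenhouse, then visually rated in percent of kill compared with untreated controls.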

SETVI [10] = assay: Pre-emergence herbicidal action against SETVI; type: in vivo, Setaria viridis
Method in brief: as §1

PHBPU [11] = assay: Post-emergence herbicidal action against PHBPU; type: in vivo, Pharbitis purpurea; conditions: dosage 20 g/ha
Method in brief: as §2

ABUTH [12] = assay: Post-emergence herbicidal action against ABUTH; type: in vivo, Abutilon theophrasti; conditions: visual assessment about 3 weeks after treatment vs untreated controls
Method in brief: as §2

DIGSA [13] = assay: Pre-emergence herbicidal action against DIGSA; type: in vivo, Digitaria sanguinalis
Method in brief: as §1

SETVI [14] = assay: Post-emergence herbicidal action against SETVI; type: in vivo, Setaria viridis
Method in brief: as §2

MATIN [15] = assay: Post-emergence herbicidal action against MATIN; type: in vivo, Matricaria inodora
Method in brief: as §2

VIOTR [16] = assay: Post-emergence herbicidal action against VIOTR; type: in vivo, Viola tricolor
Method in brief: as §2

DIGSA [17] = assay: Post-emergence herbicidal action against DIGSA; type: in vivo, Digitaria sanguinalis
Method in brief: as §2

AMARE [18] = assay: Post-emergence herbicidal action against AMARE; type: in vivo, Amaranthus retroflexus; conditions: 20 g/ha, visual assessment about 3 weeks after treatment, 100% = plants have died, 0% = like control plants
Method in brief: as §2

VERPE [19] = assay: Post-emergence herbicidal action against VERPE; type: in vivo, Veronica persica; conditions: 20 g/ha
Method in brief: as §2

VERPE [20] = assay: Pre-emergence herbicidal action against VERPE; type: in vivo, Veronica persica; conditions: dosage 80 g/ha
Method in brief: as §1

[21] = 20 g/ha, scored visually after 3 weeks vs untreated controls, 100% = plants have died, 0% = like control plants
[22] = 80 g/ha, scored visually after 3 weeks vs untreated controls (100% = plants have died, 0% = like control plants)

CCn1nnnc1NC(=O)c1ccc(C(F)(F)F)c(C(=O)NCC(F)F)c1C [Example 2-30]
90%: Post-emergence action against PHBPU in % (PHBPU [11])
80%: Post-emergence action against POLCO in % (POLCO [5]) | Pre-emergence action against PHBPU in % (PHBPU [6]) | Pre-emergence action against POLCO in % (POLCO [8]; dosage 20 g/ha) | Pre-emergence action against POLCO in % (POLCO [8]; dosage 80 g/ha) | Post-emergence action against ECHCG in % (ECHCG [9]; dosage 5 g/ha) | Post-emergence action against ECHCG in % (ECHCG [9]; dosage 20 g/ha) | Post-emergence action against ABUTH in % (ABUTH [12]; dosage 5 g/ha) | Post-emergence action against ABUTH in % (ABUTH [12]; dosage 20 g/ha) | Post-emergence action against SETVI in % (SETVI [14]; dosage 20 g/ha)
100%: Pre-emergence action against AMARE in % (AMARE [1]; [21]) | Pre-emergence action against AMARE in % (AMARE [1]; [22]) | Pre-emergence action against MATIN in % (MATIN [2]; dosage 20 g/ha) | Pre-emergence action against MATIN in % (MATIN [2]; dosage 80 g/ha) | Pre-emergence action against VIOTR in % (VIOTR [3]; dosage 20 g/ha) | Pre-emergence action against VIOTR in % (VIOTR [3]; dosage 80 g/ha) | Pre-emergence action against ALOMY (herbicidal activity) (ALOMY) | Pre-emergence action against ABUTH (herbicidal activity) (ABUTH [4]) | Pre-emergence action against AVEFA in % (AVEFA) | Pre-emergence action against ECHCG in % (ECHCG [7]; 80 g/ha) | Pre-emergence action against SETVI in % (SETVI [10]; dosage 20 g/ha) | Pre-emergence action against SETVI in % (SETVI [10]; dosage 80 g/ha) | Pre-emergence action against DIGSA in % (DIGSA [13]; dosage 20 g/ha) | Pre-emergence action against DIGSA in % (DIGSA [13]; dosage 80 g/ha)

CCNC(=O)c1c(C(F)F)ccc(C(=O)Nc2nnnn2CC)c1C1CC1 [Example 2-305]
100%: Pre-emergence action against AMARE in % (AMARE [1]; [21]) | Pre-emergence action against AMARE in % (AMARE [1]; [22]) | Pre-emergence action against MATIN in % (MATIN [2]; dosage 20 g/ha) | Pre-emergence action against MATIN in % (MATIN [2]; dosage 80 g/ha) | Pre-emergence action against VIOTR in % (VIOTR [3]; dosage 80 g/ha) | Pre-emergence action against ABUTH (herbicidal activity) (ABUTH [4]) | Pre-emergence action against ABUTH (herbicidal activity in percent) (ABUTH [4]; dosage 20 g/ha, scored visually after 3 weeks vs untreated controls, 100% = plants have died, 0% = like control plants) | Post-emergence action against POLCO in % (POLCO [5]) | Pre-emergence action against ECHCG in % (ECHCG [7]; 80 g/ha) | Post-emergence action at 20 g/ha against AMARE in % (AMARE [18]) | Pre-emergence action against DIGSA in % (DIGSA [13]; dosage 20 g/ha) | Pre-emergence action against DIGSA in % (DIGSA [13]; dosage 80 g/ha) | Pre-emergence action against VERPE in % (VERPE [20])
90%: Pre-emergence action against VIOTR in % (VIOTR [3]; dosage 20 g/ha) | Post-emergence action against MATIN in % (MATIN [15]; dosage 20 g/ha) | Pre-emergence action against PHBPU in % (PHBPU [6]) | Post-emergence action against VIOTR in % (VIOTR [16]; 20 g/ha) | Post-emergence action against ECHCG in % (ECHCG [9]; dosage 5 g/ha) | Post-emergence action against ECHCG in % (ECHCG [9]; dosage 20 g/ha) | Post-emergence action against PHBPU in % (PHBPU [11]) | Post-emergence action against ABUTH in % (ABUTH [12]; dosage 20 g/ha) | Post-emergence action against DIGSA (DIGSA [17]; 20 g/ha) | Post-emergence action against VERPE in % (VERPE [19]) | Post-emergence action against SETVI in % (SETVI [14]; dosage 5 g/ha) | Post-emergence action against SETVI in % (SETVI [14]; dosage 20 g/ha)
80%: Post-emergence action against MATIN in % (MATIN [15]; dosage 5 g/ha) | Post-emergence action against VIOTR in % (VIOTR [16]; 5 g/ha) | Pre-emergence action against ECHCG in % (ECHCG [7]; 20 g/ha) | Pre-emergence action against SETVI in % (SETVI [10]; dosage 80 g/ha) | Post-emergence action against ABUTH in % (ABUTH [12]; dosage 5 g/ha) | Post-emergence action against DIGSA in % (DIGSA [17]; 5 g/ha)
